Assay results as given in patent publication US10688110B2 (NanGenex Nanotechnology Incorporated, priority 2015, dated 2020).
Like-named read-outs stand apart in the source and are kept apart here.

How the values were obtained:
[1] = cited from earlier work
PAMPA permeability = type: in vitro ADME; conditions: pH 7, simulated saliva condition
[2] = cited from earlier work; remark: listed apart in the source
[3] = healthy subjects, within the clinical dose range; cited from earlier work
[4] = single oral dose of radiolabeled drug

Cc1ccc(-c2cc(C(F)(F)F)nn2-c2ccc(S(N)(=O)=O)cc2)cc1 [Celecoxib, 4-[5-(4-methylphenyl)-3-(trifluoromethyl)-1H-pyrazol-1-yl] benzenesulfonamide]
time of peak plasma levels ([1]; after an oral dose): approximately 3 hrs | effective half-life ([1]; fasted conditions): approximately 11 hours | dose proportionality of Cmax and AUC ([1]; fasting conditions, up to 200 mg BID): roughly dose-proportional | overall systemic exposure (AUC), intact capsule vs capsule contents sprinkled on applesauce ([1]; healthy adult volunteers): equivalent | apparent plasma clearance (CL/F) ([1]; human, in vivo): about 500 mL/min | unchanged drug recovered in the urine and feces ([1]; human, in vivo): < 3% | steady-state conditions reached ([1]; multiple dosing): ≤ 5 days | time of peak plasma levels ([1]; single dose of 200 mg of current formulation, oral): 3 h | onset of pain relief ([1]; single dose of 200 mg of current formulation): ≥ 1 h | dose excreted in the feces [1, 4]: approximately 57% | dose excreted into the urine [1, 4]: 27% | Papp (PAMPA permeability): 0.3 ×10⁻⁶ cm/s | solubility in methanol and chloroform [2]: soluble | solubility in water [2]: insoluble | protein bound [3]: ~97%
